According to US20250340574A1, “MODULATORS OF CYSTIC FIBROSIS TRANSMEMBRANE CONDUCTANCE REGULATOR” (Vertex Pharmaceuticals Incorporated, priority 2022, published 2025):

Biological target: T1, CFTR (F508del/MF-HBE cells) (Homo sapiens, UniProt P13569, DEL508-508)
T1 construct: human bronchial epithelial (HBE) cells derived from CF subjects heterozygous for F508del and a minimal function CFTR mutation (F508del/MF-HBE); endogenous in cells; host or cells: Primary human bronchial epithelial cells from CF subjects (F508del/MF genotype), differentiated at an air-liquid interface
T1 sequence (P13569 with tags, fused parts or gaps DEL508-508): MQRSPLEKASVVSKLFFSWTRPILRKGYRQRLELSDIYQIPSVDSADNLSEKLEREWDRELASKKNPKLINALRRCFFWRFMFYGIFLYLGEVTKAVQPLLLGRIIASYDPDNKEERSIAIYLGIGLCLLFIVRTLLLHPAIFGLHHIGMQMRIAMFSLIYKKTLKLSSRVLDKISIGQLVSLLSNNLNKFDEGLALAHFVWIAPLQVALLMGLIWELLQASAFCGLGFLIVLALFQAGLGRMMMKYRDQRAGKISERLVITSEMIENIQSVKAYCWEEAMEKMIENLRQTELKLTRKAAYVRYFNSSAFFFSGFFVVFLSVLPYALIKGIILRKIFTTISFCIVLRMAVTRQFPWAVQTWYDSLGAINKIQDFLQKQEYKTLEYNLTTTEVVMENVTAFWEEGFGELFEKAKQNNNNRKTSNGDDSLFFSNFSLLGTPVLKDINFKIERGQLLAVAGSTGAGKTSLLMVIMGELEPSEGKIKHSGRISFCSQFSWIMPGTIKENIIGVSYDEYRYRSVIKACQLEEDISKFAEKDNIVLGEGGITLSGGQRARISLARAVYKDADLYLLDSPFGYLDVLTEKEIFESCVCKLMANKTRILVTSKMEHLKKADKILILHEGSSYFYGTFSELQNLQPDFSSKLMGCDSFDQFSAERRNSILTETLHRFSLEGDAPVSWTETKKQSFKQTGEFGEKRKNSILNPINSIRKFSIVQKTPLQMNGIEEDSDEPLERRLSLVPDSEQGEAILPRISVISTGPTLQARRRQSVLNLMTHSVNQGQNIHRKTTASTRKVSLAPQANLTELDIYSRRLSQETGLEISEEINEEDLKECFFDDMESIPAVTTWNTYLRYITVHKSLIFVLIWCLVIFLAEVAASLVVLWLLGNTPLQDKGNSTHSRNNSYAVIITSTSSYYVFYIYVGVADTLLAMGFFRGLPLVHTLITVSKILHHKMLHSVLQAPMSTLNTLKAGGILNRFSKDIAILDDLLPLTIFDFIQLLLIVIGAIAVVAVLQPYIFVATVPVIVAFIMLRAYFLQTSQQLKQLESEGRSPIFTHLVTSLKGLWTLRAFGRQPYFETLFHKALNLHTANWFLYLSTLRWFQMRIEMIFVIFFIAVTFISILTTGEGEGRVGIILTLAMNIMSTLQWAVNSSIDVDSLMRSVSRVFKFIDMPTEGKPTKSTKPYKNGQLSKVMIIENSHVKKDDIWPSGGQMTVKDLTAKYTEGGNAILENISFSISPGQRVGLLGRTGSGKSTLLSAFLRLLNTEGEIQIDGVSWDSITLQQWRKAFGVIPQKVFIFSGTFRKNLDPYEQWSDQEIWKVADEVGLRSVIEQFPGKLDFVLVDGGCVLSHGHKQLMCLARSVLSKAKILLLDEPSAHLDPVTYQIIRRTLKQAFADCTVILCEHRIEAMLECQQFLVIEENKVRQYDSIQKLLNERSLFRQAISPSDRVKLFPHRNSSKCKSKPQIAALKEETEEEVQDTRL
Assay: Ussing chamber assay of CFTR-mediated short-circuit currents, Assay D (single concentration of 1 μM)
Assay type: cell-based
Settings: with 44 nM potentiator and 18 μM Tezacaftor, 18-24 hours, 20% human serum
Experimental: Ussing chamber experiments were performed using human bronchial epithelial (HBE) cells derived from CF subjects heterozygous for F508del and a minimal function CFTR mutation (F508del/MF-HBE) and cultured as previously described (Neuberger T, Burton B, Clark H, Van Goor F Methods Mol Biol 2011:741:39-54). After four days the apical media was removed, and the cells were grown at an air liquid interface for >14 days prior to use.
To isolate the CFTR-mediated short-circuit (ISC) current, F508del/MF-HBE grown on Costar® Snapwell™ cell culture inserts were mounted in an Ussing chamber and the transepithelial ISC was measured under voltage-clamp recording conditions (Vhold=0 mV) at 37° C. The basolateral solution contained (in mM) 145 NaCl, 0.83 K2HPO4, 3.3 KH2PO4, 1.2 MgCl2, 1.2 CaCl2, 10 Glucose, 10 HEPES (pH adjusted to 7.4 with NaOH) and the apical solution contained (in mM) 145 NaGluconate, 1.2 MgCl2, 1.2 CaCl2, 10 glucose, 10 HEPES (pH adjusted to 7.4 with NaOH) and 30 μM amiloride to block the epithelial sodium channel. Forskolin (20 μM) was added to the apical surface to activate CFTR, followed by apical addition of a CFTR inhibitor cocktail consisting of BPO, GlyH-101, and CFTR inhibitor 172 (each at 20 μM final assay concentration) to specifically isolate CFTR currents. The CFTR-mediated ISC (μA/cm^2) for each condition was determined from the peak forskolin response to the steady-state current following inhibition.
The activity of the CFTR corrector compounds on the CFTR-mediated ISC was determined in Ussing chamber studies as described above. The F508del/MF-HBE cell cultures were either incubated with the corrector compounds at a range of concentrations in combination with 33 nM (6R,12R)-17-amino-12-methyl-6,15-bis(trifluoromethyl)-13,19-dioxa-3,4,18-triazatricyclo[12.3.1.12,5]nonadeca-1(18),2,4,14,16-pentaen-6-ol and 18 μM Tezacaftor or were incubated with the corrector compounds at a single fixed concentration of 1 μM in combination with 44 nM (6R,12R)-17-amino-12-methyl-6,15-bis(trifluoromethyl)-13,19-dioxa-3,4,18-triazatricyclo[12.3.1.12,5]nonadeca-1(18),2,4,14,16-pentaen-6-ol and 18 μM Tezacaftor for 18-24 hours at 37° C. and in the presence of 20% human serum. The concentration of corrector compounds with 44 nM or 33 nM (6R,12R)-17-amino-12-methyl-6,15-bis(trifluoromethyl)-13,19-dioxa-3,4,18-triazatricyclo[12.3.1.12,5]nonadeca-1(18),2,4,14,16-pentaen-6-ol and 18 μM Tezacaftor during the 18-24 hours incubations was kept constant throughout the Ussing chamber measurement of the CFTR-mediated ISC to ensure compounds were present throughout the entire experiment. The efficacy and potency of the putative F508del correctors was compared to that of the known Vertex corrector, (14S)-8-[3-(2-{Dispiro[2.0.2.1]heptan-7-yl}ethoxy)-1H-pyrazol-1-yl]-12,12-dimethyl-2λ^6-thia-3,9,11,18,23-pentaazatetracyclo[17.3.1.111,14.05,10]tetracosa-1(22),5,7,9,19(23),20-hexaene-2,2,4-trione, in combination with 18 μM Tezacaftor and 1 μM Ivacaftor.
• Assay A: 0.1 μM to 25 μM, 6 concentrations • Assay B: 0.00001 μM to 25 μM, 12 concentrations • Assay C: 0.026 μM to 25 μM, 6 concentrations • Assay D: Activity at single concentration of 1 μM

Row | D activity at 1 μM (%) | Compound
1 | +++ (+++ is >60%) | Cc1cccc(C)c1-c1cc2nc(n1)NS(=O)(=O)c1cccc(c1)C(=O)N(Cc1cnc3cc(C(C)C)n(C)c3n1)[C@H](C[C@@H]1CCCCO1)CO2 [Compound I-15, (11R)-6-(2,6-dimethylphenyl)-12-[(6-isopropyl-5-methyl-pyrrolo[2,3-b]pyrazin-3-yl)methyl]-2,2-dioxo-11-[[(2S)-tetrahydropyran-2-yl]methyl]-9-oxa-2λ^6-thia-3,5,12,19-tetrazatricyclo[12.3.1.14,8]nonadeca-1(18),4(19),5,7,14,16-hexaen-13-one]
2 | +++ (+++ is >60%) | Cc1cccc(C)c1-c1cc2nc(n1)NS(=O)(=O)c1cccc(c1)C(=O)N(Cc1cnc3oc(C(C)C)cc3n1)[C@H](CC(C)C)CCO2 [Compound I-5]
3 | +++ (+++ is >60%) | Cc1cccc(C)c1-c1cc2nc(n1)NS(=O)(=O)c1cccc(c1)C(=O)N(Cc1cnc3oc(C4CC4)cc3n1)[C@@H](CC1CC(C)(C)C1)CO2 (single isomer, unassigned) [Compound I-165, 12-[(6-Cyclopropylfuro[2,3-b]pyrazin-2-yl)methyl]-11-[(3,3-dimethylcyclobutyl)methyl]-6-(2,6-dimethylphenyl)-2,2-dioxo-9-oxa-2λ^6-thia-3,5,12,19-tetrazatricyclo[12.3.1.14,8]nonadeca-1(18),4(19),5,7,14,16-hexaen-13-one]
4 | +++ (+++ is >60%) | Cc1cccc(C)c1-c1cc2nc(n1)NS(=O)(=O)c1cccc(c1)C(=O)N(Cc1cnc3cc(C(C)C)n(CCO)c3n1)[C@H](CC(C)(C)C)CO2 [Compound I-160, (11R)-6-(2,6-Dimethylphenyl)-11-(2,2-dimethylpropyl)-12-[[5-(2-hydroxyethyl)-6-isopropyl-pyrrolo[2,3-b]pyrazin-3-yl]methyl]-2,2-dioxo-9-oxa-2λ^6-thia-3,5,12,19-tetrazatricyclo[12.3.1.14,8]nonadeca-1(18),4(19),5,7,14,16-hexaen-13-one]
5 | +++ (+++ is >60%) | Cc1cccc(C)c1-c1cc2nc(n1)NS(=O)(=O)c1cccc(c1)C(=O)N(Cc1cnc3oc(C4CC4)cc3n1)[C@H](CC(C)C)CO2 [Compound I-156]
6 | ++ (++ is 30-60%) | Cc1cccc(C)c1-c1cc2nc(n1)NS(=O)(=O)c1cccc(c1)C(=O)N(Cc1cnc3cc(C(C)C)n(C)c3n1)[C@H](CC1CCOCC1)CO2 [Compound I-29]
7 | +++ (+++ is >60%) | Cc1cccc(C)c1-c1cc2nc(n1)NS(=O)(=O)c1cccc(c1)C(=O)N(Cc1cnc3cc(C(C)C)n(C)c3n1)[C@H](Cc1ccccc1)CO2 [Compound I-190]
8 | +++ (+++ is >60%) | Cc1cccc(C)c1-c1cc2nc(n1)NS(=O)(=O)c1cccc(c1)C(=O)N(Cc1cnc3oc(C(C)C)cc3n1)[C@H](CC1(C)CCC1)CO2 [Compound I-55]
9 | +++ (+++ is >60%) | Cc1cccc(C)c1-c1cc2nc(n1)NS(=O)(=O)c1cccc(c1)C(=O)N(Cc1cnc3oc(C(C)C)cc3n1)C(CC(C)(C)C1CC1)CO2 (centres unmarked) [Compound I-105]

More lines, now with the values behind:

Row | Compound | D activity at 1 μM (%)
10 | Cc1cccc(C)c1-c1cc2nc(n1)NS(=O)(=O)c1cccc(c1)C(=O)N(Cc1ncc3oc(C(C)(C)C)cc3n1)[C@H](CC1(C)CC1)CO2 [Compound I-252] | +++ (+++ is >60%)
11 | Cc1cccc(C)c1-c1nc2nc(c1C)OC[C@@H](CCC(C)(C)C)N(Cc1cnc3oc(C4CC4)cc3n1)C(=O)c1cccc(c1)S(=O)(=O)N2 [Compound I-184] | +++ (+++ is >60%)
12 | Cc1cccc(C)c1-c1nc2nc(c1C)OC[C@@H](CCC(C)(C)C)N(Cc1cnc3cc(C4CC4)n(C)c3n1)C(=O)c1cccc(c1)S(=O)(=O)N2 [Compound I-183] | +++ (+++ is >60%)
13 | Cc1cccc(C)c1-c1cc2nc(n1)NS(=O)(=O)c1cccc(c1)C(=O)N(Cc1cnc3c(n1)C(=O)N(C(C)C)[C@@H]3C)[C@H](CC(C)(C)C)CO2 (stereo in doubt) [III-23] | +++ (+++ is >60%)
14 | Cc1cccc(C)c1-c1cc2nc(n1)NS(=O)(=O)c1cccc(c1)C(=O)N(Cc1cnc3oc(C)c(C4CC4)c3n1)[C@H](CC(C)(C)C)CO2 [Compound I-28] | +++ (+++ is >60%)
15 | Cc1cccc(C)c1-c1cc2nc(n1)NS(=N)(=O)c1cccc(c1)C(=O)N(Cc1cnc3oc(C4CC4)cc3n1)[C@H](CC(C)(C)C)CO2 (stereo partly drawn) [Compound I-148, (11R)-12-[(6-cyclopropylfuro[2,3-b]pyrazin-2-yl)methyl]-6-(2,6-dimethylphenyl)-11-(2,2-dimethylpropyl)-2-imino-2-oxo-9-oxa-2λ^6-thia-3,5,12,19-tetrazatricyclo[12.3.1.14,8]nonadeca-1(18),4(19),5,7,14,16-hexaen-13-one] | +++ (+++ is >60%)
16 | Cc1cccc(C)c1-c1cc2nc(n1)NS(=O)(=O)c1cccc(c1)C(=O)N(Cc1nc3cc(C(C)(C)C)oc3cc1F)[C@H](COC(C)C)CO2 [Compound I-242] | +++ (+++ is >60%)
17 | Cc1cccc(C)c1-c1cc2nc(n1)NS(=O)(=O)c1cccc(c1)C(=O)N(Cc1nc3cc(C4(C)CC4)oc3cc1F)[C@H](COC(C)C)CO2 [Compound I-253] | +++ (+++ is >60%)
18 | Cc1cccc(C)c1-c1cc2nc(n1)NS(=O)(=O)c1cccc(c1)C(=O)N(Cc1cnc3oc(C(C)C)cc3n1)[C@H](C=C1CCC1)CO2 [Compound I-153] | +++ (+++ is >60%)
19 | Cc1cccc(C)c1-c1cc2nc(n1)NS(=O)(=O)c1cccc(c1)C(=O)N(Cc1cn3cccc(O)c3n1)[C@H](CC(C)(C)C)CO2 [III-15] | +++ (+++ is >60%)
20 | Cc1cccc(C)c1-c1cc2nc(n1)NS(=O)(=O)c1cccc(c1)C(=O)N(Cc1cnc3oc(C4CC4)cc3n1)[C@@H](C1CC(C)(C)C1)CO2 [Compound I-163] | +++ (+++ is >60%)
21 | Cc1cccc(CC(C)C)c1-c1nc2nc(c1C)OC[C@@H](CC13CC(C1)C3)N(Cc1cnc3oc(C(C)(C)C)cc3n1)C(=O)c1cccc(c1)S(=O)(=O)N2 [Compound I-248] | +++ (+++ is >60%)
22 | Cc1cccc(C)c1-c1cc2nc(n1)NS(=O)(=O)c1cccc(c1F)C(=O)N(Cc1cnc3cc(C(C)C)n(CCO)c3n1)[C@H](CC1(C)CC1)CO2 [Compound I-215] | +++ (+++ is >60%)

Same assay, conditions: with 44 nM potentiator and 18 μM Tezacaftor, 20% human serum

Row | D act. at 1 μM (%) | Compound
23 | +++ (+++ is >60%) | Cc1cccc(C)c1-c1cc2nc(n1)NS(=O)(=O)c1cccc(c1)C(=O)N(Cc1cnc3oc([C@](C)(O)CO)cc3n1)[C@H](CC1(C)CC1)CO2 (single isomer, unassigned) [IV-14]
24 | +++ (+++ is >60%) | Cc1cccc(C)c1-c1cc2nc(n1)NS(=O)(=O)c1cccc(c1)C(=O)N(Cc1ncc3cc(C4CC4)n(C)c3n1)[C@H](COC(C)C)CO2 [IV-29]
25 | +++ (+++ is >60%) | COC(C)(C)CC(C)(O)c1cc2nc(CN3C(=O)c4cccc(c4)S(=O)(=O)Nc4nc(cc(-c5c(C)cccc5C)n4)OC[C@H]3CC3(C)CC3)cnc2o1 (stereo partly drawn) [IV-13, (11R)-6-(2,6-dimethylphenyl)-12-[[6-(1-hydroxy-3-methoxy-1,3-dimethyl-butyl)furo[2,3-b]pyrazin-2-yl]methyl]-11-[(1-methylcyclopropyl)methyl]-2,2-dioxo-9-oxa-2λ^6-thia-3,5,12,19-tetrazatricyclo[12.3.1.14,8]nonadeca-1(18),4(19),5,7,14,16-hexaen-13-one]
26 | +++ (+++ is >60%) | Cc1cccc(C)c1-c1cc2nc(n1)NS(=O)(=O)c1cccc(c1)C(=O)N(Cc1cnc3oc(C(C)(C)C)cc3n1)[C@H](CC(C)C)CO2 [IV-6]
